The values below come from patent US20110124727A1, “Oxybuprocaine-Containing Analgesic/Antipruritic External Preparation” (Teikoku Seiyaku Co., LTD, priority 2008, published 2011).

This test relates to male ddy strain mouse. Put plainly: Pharmacological test of antipruritic action using mice (Compound 48/80-induced scratching). The note with it: for Number of times scratching occurred (mean ± standard error): counted for 30 minutes after Compound 48/80 100 μg/body s.c., oxybuprocaine in saline 10 mg/kg dorsal neck, cyproheptadine 1 mg/kg intraperitoneally, n=6.

The structures appear in SMILES notation.

`CN1CCC(=C2c3ccccc3C=Cc3ccccc32)CC1` [cyproheptadine]: the “Number of times scratching occurred (mean ± standard error)” value came out at 76.7 ± 21.3.
Turning to `CCCCOc1cc(C(=O)OCCN(CC)CC)ccc1N` [oxybuprocaine, Oxybuprocaine], the “Number of times scratching occurred (mean ± standard error)” value was 45.8 ± 18.9. Moreover, the “Antipruritic effect in words (suppression of scratching behaviors)” value (compared to saline control group and cyproheptadine group) is listed as “suppressed scratching behaviors strongly”.
